Measured values as given in patent publication US8524740B2, “Synthesis and anticancer activity of aryl and heteroaryl-quinolin derivatives” (Tairx, Inc., priority 2010, dated 2013).

Legend:
HL-60 = test: MTT assay, HL-60 cells; type: cell-based; details: Homo sapiens, Table 6, MTT
In short: (§1)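 Cells exposed to compounds for 48 h (other runs: indicated periods), then washed with PBS and given MTT for 2 h. Formazan dissolved in DMSO and read at 570 nm as a measure of cell growth.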

Hep3B = test: MTT assay, Hep 3B cells; type: cell-based; details: Homo sapiens, Table 6, MTT
In short: as §1

H460 = test: MTT assay, H460 cells; type: cell-based; details: Homo sapiens, NCI-H460; Table 6; MTT
In short: (§2)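 H460 and Detroit 551 cells exposed to test compounds for 48 h (vehicle control); growth measured by MTT reduction, 2 h MTT incubation, formazan dissolved in DMSO, absorbance at 570 nm.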

Detroit 551 = test: MTT assay, Detroit 551 normal human cells; type: cell-based; details: Homo sapiens, Detroit 551; Table 6; MTT
In short: as §2

A498 = test: MTT assay, A498 cells; type: cell-based; details: Homo sapiens, Table 6
Description: (§3) MTT (3-(4,5-Dimethylthiazol-2-yl)-2,5-diphenyltetrazolium bromide) assays. HL-60, Hep 3B, H460, A498, Colo205 and Detroit 551 cells were treated with tested compounds for the indicated periods. After treatment, cells were washed once with PBS and incubated with MTT (Sigma, St. Louis, Mo., USA) for 2 h. The formazan precipitate was dissolved in 150 μL of DMSO, and the absorbance was measured with an ELISA reader at 570 nm.

Colo205 = test: MTT assay, Colo205 cells; type: cell-based; details: Homo sapiens, COLO 205, Table 6
Description: as §3

IC50 (HL-60): 0.4 µM | IC50 (Hep3B): > 50 µM | IC50 (H460): > 50 µM | IC50 (Colo205): > 50 µM | melting point: > 300 °C
Structure (SMILES): COc1cc(O)cc(-c2cc(=O)c3cc4c(cc3[nH]2)OCO4)c1 [Compound 166, 2-(3-Hydroxy-5-methoxyphenyl)-6,7-methylenedioxyquinolin-4-one]
IC50 (Detroit 551): > 50 µM | IC50 (A498): > 50 µM
